Laboratory results taken from ChEMBL document CHEMBL1138271, “Discovery of 5-substituted-6-chlorouracils as efficient inhibitors of human thymidine phosphorylase” (J Med Chem, 2007).

Assays:
[1] = Acid dissociation constant, pKa of the compound; assay type: physicochemical
Thymidine phosphorylase [2] = biological target: T1, Thymidine phosphorylase (Homo sapiens, UniProt P19971); test: Inhibition of human placental thymidine phosphorylase
T1 sequence (P19971 whole entry): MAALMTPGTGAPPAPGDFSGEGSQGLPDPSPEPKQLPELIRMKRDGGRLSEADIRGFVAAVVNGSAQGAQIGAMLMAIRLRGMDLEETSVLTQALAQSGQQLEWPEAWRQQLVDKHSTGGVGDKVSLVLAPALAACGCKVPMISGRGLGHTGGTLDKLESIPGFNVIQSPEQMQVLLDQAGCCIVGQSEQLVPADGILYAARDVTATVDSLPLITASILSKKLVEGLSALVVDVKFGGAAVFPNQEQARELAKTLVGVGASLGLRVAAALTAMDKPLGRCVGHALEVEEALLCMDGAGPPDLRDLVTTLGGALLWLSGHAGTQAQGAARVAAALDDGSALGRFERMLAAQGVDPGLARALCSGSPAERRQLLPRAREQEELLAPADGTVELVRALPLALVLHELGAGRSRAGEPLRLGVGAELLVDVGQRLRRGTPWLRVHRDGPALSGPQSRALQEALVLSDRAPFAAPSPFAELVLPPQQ

Thymidine phosphorylase [3] = biological target: T1, Thymidine phosphorylase; test: Inhibition of human recombinant thymidine phosphorylase expressed in V79 cells; assay type: cell-based

| Compound | pKa [1] | Ki (Thymidine phosphorylase [2]) [µM] | Ki (Thymidine phosphorylase [3]) [µM] |
| --- | --- | --- | --- |
| O=c1[nH]c(Cl)c(C2=CCCC2)c(=O)[nH]1 | 5.8 | – | – |
| Cc1[nH]c(=O)[nH]c(=O)c1-c1ccccc1 | – | > 20 | > 20 |

The next lines start with the values.

| pKa [1] | Ki (Thymidine phosphorylase [2]) [µM] | Ki (Thymidine phosphorylase [3]) [µM] | Compound |
| --- | --- | --- | --- |
| – | > 20 | > 20 | CCc1c(Cl)[nH]c(=O)[nH]c1=O |
| – | > 20 | > 20 | NCCNc1[nH]c(=O)[nH]c(=O)c1-c1ccccc1 |
| – | > 20 | > 20 | O=c1[nH]c(N2CCCC2)c(-c2ccccc2)c(=O)[nH]1 |
